The source of these data is US20190083462A1, “PREVENTION OF NSAID ENTEROPATHY WITH MICROBIOTA-DERIVED TRYPTOPHAN-METABOLITE” (THE TEXAS A&M UNIVERSITY SYSTEM, priority 2016, published 2019).

Each structure is given as a SMILES string.

The test system of assay [1] is fecal microbiota. In words: Fecal microbiota 16S rRNA sequencing (ANOSIM, SIMPER). Format: in vivo, mice. The conditions noted are these: for mean % abundance: day 7 feces.
Assay [2] has as its system C57BL/6J mice. In words: Histology and small intestinal morphometric measurements. It counts as in vivo. Particulars: Swiss-rolled H & E stained small intestinal sections, n=5/group.
Description: Eight- to 10-week-old specific-pathogen-free C57BL/6J mice were purchased and allowed to acclimate for 2 weeks. Mice were fed standardized laboratory rodent diet and sterile water ad libitum. […] Mice were then rehoused on the basis of treatment group assignment, with 5 animals/group-cage. To induce NSAID enteropathy, mice in group 1 were gavaged once daily with indomethacin (5 mg/kg; for 7 days; Sigma Aldrich, St. Louis, Mo.) dissolved in dimethylysulfoxide (DMSO) (Sigma Aldrich, St. Louis, Mo.) and further diluted in phosphate buffered saline (PBS). […] All mice were gavaged with equal volumes (200 μL) and equal concentrations of DMSO (0.001%).
The slides were scored as previously described for intestinal inflammation (Jia Q, Lupton J R, Smith R, Weeks B R, Callaway E, Davidson L A, Kim W, Fan Y Y, Yang P, Newman R A, et al. Reduced colitis-associated colon cancer in Fat-1 (n-3 fatty acid desaturase) transgenic mice. Cancer Research 2008; 68:3985-91). Briefly, mucosal injury was determined by the following parameters scored from 0 (no evidence) to 3 (marked): mucosal ulceration, mucosal erosion, and presence of squamified epithelium. Inflammatory changes were scored similarly based on the following parameters: lymphocytic infiltration, plasma cell infiltration, and neutrophilic infiltration. Finally, an overall evidence of injury score was used to document total injury graded from 0 (none) to 4 (marked). Morphological parameters were obtained from digitally scanned slides using SPOT vr 5.0 software. Three sets of measurements from 3 separate sections were recorded for each animal by an observer blinded to treatment group. Measurements consisted of villus height, crypt depth, and submucosal mural thickness.
Assay [3] concerns intestinal epithelial cells. Particulars: cited from earlier work.
For assay [4], the system named is small intestinal mucosa. Kind of assay: RNA sequencing (RNA-Seq) of the distal small intestinal mucosa. Particulars: indole co-administered with NSAID; degree of up-regulation vs control mice. Format: in vivo, mice. From the text: (§1) Eight- to 10-week-old specific-pathogen-free C57BL/6J mice were purchased and allowed to acclimate for 2 weeks. Mice were fed standardized laboratory rodent diet and sterile water ad libitum. Mice were randomly divided into the following 4 groups (n=5 mice/group): 1) NSAID (indomethacin); 2) indole; 3) NSAID+indole; and, 4) untreated controls. Mice were then rehoused on the basis of treatment group assignment, with 5 animals/group-cage. To induce NSAID enteropathy, mice in group 1 were gavaged once daily with indomethacin (5 mg/kg; for 7 days; Sigma Aldrich, St. Louis, Mo.) dissolved in dimethylysulfoxide (DMSO) (Sigma Aldrich, St. Louis, Mo.) and further diluted in phosphate buffered saline (PBS). Mice in group 2 received indole by gavage (20 mg/kg; once daily for 7 days; Sigma Aldrich, St. Louis, Mo.) dissolved in sterile water warmed to 55° C. Mice in group 3 received indole co-administered with indomethacin by gavage at the dosages described above. All mice were gavaged with equal volumes (200 μL) and equal concentrations of DMSO (0.001%).
Feces were collected daily by placing individual animals in sterile plastic cups that were RNase- and DNase-free until they passed feces. The mice were immediately returned to their home cages and the feces immediately flash frozen at −80° C. […]
RNA was extracted from the mucosal scrapings using an RNeasy mini kit (QIAGEN, Redwood City, Calif.) following the manufacturer's instructions and including on-column DNase treatment. RNA quantity was determined using a Nanodrop spectrophotometer (Fisher Thermoscientific) and the quality was assessed using the Nano6000 chip on a Bioanalyzer 2100(Agilent Technologies). […] Differentially expressed genes were determined using EdgeR based on the matrix of gene counts (Robinson M D, McCarthy D J, Smyth G K. edgeR: a Bioconductor package for differential expression analysis of digital gene expression data. Bioinformatics (Oxford, England) 2010; 26:139-40). Gene lists were analyzed through use of QIAGEN's Ingenuity® Pathway Analysis (IPA, QIAGEN, Redwood City, Calif. http://www.qiagen.com/ingenuity). […]

For assay [5], the system named is fecal tryptophan metabolites. In words: Fecal tryptophan metabolites by LC-MS. It counts as in vivo, mice.
Description: as §1
Feces were collected daily by placing individual animals in sterile plastic cups that were RNase- and DNase-free until they passed feces. The mice were immediately returned to their home cages and the feces immediately flash frozen at −80° C. All animals were euthanized via CO2 asphyxiation on day 8 (i.e., after 7 days of treatment). The small intestine was harvested, opened longitudinally, rinsed with ice-cold PBS, and the distal ⅓ of the intestinal mucosa was scraped for tissue gene expression analysis. The remaining small intestine was fixed in 4% paraformaldehyde, Swiss-rolled, paraffin-embedded, and stained with hematoxylin and eosin. The spleen and mesenteric lymph nodes (MLN) were harvested, and immediately placed in ice cold RPMI-1640-c+10% fetal calf serum (FCS: Life Technologies, Carlsbad, Calif.), homogenized, and prepared as a single cell suspension for flow cytometric analysis as previously described (Wang N, Strugnell R, Wijburg O, Brodnicki T. Measuring bacterial load and immune responses in mice infected with Listeria monocytogenes. Journal of Visualized Experiments: JoVE 2011).
Metabolites from the fecal contents were extracted using a solvent-based method as previously described (Sridharan G V, Choi K, Klemashevich C, Wu C, Prabakaran D, Pan L B, Steinmeyer S, Mueller C, Yousofshahi M, Alaniz R C, et al. Prediction and quantification of bioactive microbiota metabolites in the mouse gut. Nature Communications 2014; 5:5492). Briefly, fecal pellets were homogenized using a homogenizer (Omni International) with equal volume of cold methanol and half volume of chloroform. The samples were then centrifuged at 10,000 g at 4° C. (Thermo Fisher Scientific) for 10 min. Supernatant was passed through a 70-μm sterile nylon cell strainer (Falcon) and 0.6 ml of ice cold water was added. The samples were vortex and centrifuged again at 10,000 g for 5 minutes. The upper phase and lower phase were collected and 400 μl of upper phase was dried to a pellet using a vacufuge (Eppendorf, Hauppauge, N.Y.), and then reconstituted in 50 μl of methanol/water (1:1, v/v). The samples were stored at −80° C. until analysis. Tryptophan metabolites in the samples were detected and quantified on a triple quadrupole linear ion trap mass spectrometer (3200 QTRAP, AB SCIEX, Foster City, Calif.) coupled to a binary pump HPLC (Prominence LC-20, Shimazu, Concord, Ontario, Canada).

[6] abbreviates: unweighted Unifrac distance metric, day 7.

For `c1ccc2[nH]ccc2c1` [Indole, indole], the “abundance of members of the phyla Firmicutes and Bacteroidetes” value in assay [1] (fecal 16S rRNA sequences, Day 0 vs Day 7) was “no significant difference”. Besides, the mean % abundance was 1.90E−03% in assay [1] (phylum Unassigned, Other); 3.81E−03% in assay [1] (phylum k_Bacteria, Other); 0% in assay [1] (phylum k_Bacteria, p_Acidobacteria); 0.0381% in assay [1] (phylum k_Bacteria, p_Actinobacteria); 24.6% in assay [1] (phylum k_Bacteria, p_Bacteroidetes); 9.51E−03% in assay [1] (phylum k_Bacteria, p_Cyanobacteria). Also, the mean % abundance in assay [1] (phylum k_Bacteria, p_Firmicutes) amounted to 74.7%; in assay [1] (phylum k_Bacteria, p_Proteobacteria), 0.0285%; in assay [1] (phylum k_Bacteria, p_Tenericutes), 0.656%; in assay [1] (phylum k_Bacteria, p_Verrucomicrobia) it was 1.90E−03%. For the same molecule, in assay [1] (setting [6]), the “Pairwise ANOSIM R-value vs Control” value is 0.2. In addition, the “Pairwise ANOSIM R-value vs NSAID” value in assay [1] (setting [6]) was 0.2615. Also, the “Pairwise ANOSIM R-value vs NSAID + Indole” value in assay [1] (setting [6]) is given as 0.1938. For the same molecule, the microscopic pathology scores result in assay [2] is “not different”. Besides, in assay [3], the NF-κB signaling result is given as “inhibit”. Also, in assay [3] (in vitro, earlier work of the inventors), the “anti-inflammatory effects and expression of genes associated with tight cell junctions” value was “has anti-inflammatory effects on intestinal epithelial cells and upregulates expression of genes associated with tight cell junctions”. Moreover, the “transcription of pro-inflammatory cytokines (IL-1α, IL-1β, TNF, IL-6) and chemokines (CXCL1, CXCL3, CXCL2, CXCL5, CCL2, CCL7)” value in assay [4] is given as “not significantly different than control mice”. The “Magnitude of change in fecal concentration between Days 0 and 7” value in assay [5] (Indole, group effect ↑) worked out at 5.3. Besides, the “fecal indole concentrations relative to controls” value in assay [5] (feces) is “significantly more indole”.
